# Test results taken from ChEMBL document CHEMBL1201862, “PubChem BioAssay data set” (2004).
# Calls of active or inactive are those of the source.
# Assays:
# Leucine aminopeptidase = target: T1, Leucine aminopeptidase (Plasmodium falciparum 3D7, UniProt Q8IL11); test: P. falciparum M17LAP inhibitors, primary screen, biochemical, fluorogenic H-Leu-NHMec substrate, 1536-well (AID 1619); assay type: functional
# T1 sequence (Q8IL11 whole entry): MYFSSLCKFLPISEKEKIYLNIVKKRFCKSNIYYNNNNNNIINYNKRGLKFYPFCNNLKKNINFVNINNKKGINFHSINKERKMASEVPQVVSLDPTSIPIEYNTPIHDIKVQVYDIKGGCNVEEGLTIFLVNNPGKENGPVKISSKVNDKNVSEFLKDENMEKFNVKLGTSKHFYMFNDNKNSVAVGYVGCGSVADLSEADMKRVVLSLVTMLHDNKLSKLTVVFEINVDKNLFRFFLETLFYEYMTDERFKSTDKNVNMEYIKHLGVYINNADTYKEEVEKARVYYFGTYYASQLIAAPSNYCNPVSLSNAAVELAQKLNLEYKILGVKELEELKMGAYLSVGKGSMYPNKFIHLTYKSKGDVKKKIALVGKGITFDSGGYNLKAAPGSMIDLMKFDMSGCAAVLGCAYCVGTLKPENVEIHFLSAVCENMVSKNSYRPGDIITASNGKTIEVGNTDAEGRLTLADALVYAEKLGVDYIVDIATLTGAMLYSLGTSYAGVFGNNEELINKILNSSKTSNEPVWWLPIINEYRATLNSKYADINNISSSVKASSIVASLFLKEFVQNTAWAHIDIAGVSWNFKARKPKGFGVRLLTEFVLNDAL
# Aspartyl aminopeptidase = target: T2, Aspartyl aminopeptidase (Plasmodium falciparum 3D7, UniProt Q8I2J3); test: Counterscreen for inhibitors of M1 and M17 aminopeptidases: QFRET-based biochemical high throughput dose response assay for inhibitors of the Plasmodium falciparum M18 Aspartyl Aminopeptidase (PFM18AAP). [Related PubChem assays: 1619 (Screening assay (M17LAP inhibitors).), 1445 (Screening assay (M1AAP inhibitors).)]
# T2 sequence (Q8I2J3 whole entry): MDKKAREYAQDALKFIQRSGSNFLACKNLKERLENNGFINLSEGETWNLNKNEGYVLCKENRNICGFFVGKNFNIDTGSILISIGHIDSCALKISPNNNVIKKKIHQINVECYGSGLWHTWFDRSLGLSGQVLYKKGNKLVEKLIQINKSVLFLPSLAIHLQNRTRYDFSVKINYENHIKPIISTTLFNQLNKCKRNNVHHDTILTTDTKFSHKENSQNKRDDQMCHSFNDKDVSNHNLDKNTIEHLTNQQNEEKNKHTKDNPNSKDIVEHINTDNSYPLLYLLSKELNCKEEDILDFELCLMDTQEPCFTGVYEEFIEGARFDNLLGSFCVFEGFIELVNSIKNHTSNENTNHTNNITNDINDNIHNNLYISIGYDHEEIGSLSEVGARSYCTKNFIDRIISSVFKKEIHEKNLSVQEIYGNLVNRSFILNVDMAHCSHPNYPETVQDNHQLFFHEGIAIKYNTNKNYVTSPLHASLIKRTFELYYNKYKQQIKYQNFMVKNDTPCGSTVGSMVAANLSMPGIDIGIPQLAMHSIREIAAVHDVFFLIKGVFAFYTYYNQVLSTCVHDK
# Bcl-2-like protein 10 = target: T3, Bcl-2-like protein 10 (Homo sapiens, UniProt Q9HD36); test: displacers of TR3 peptide from Bcl-B, primary screen, selectivity assay for Bfl-1 inhibitor project, biochemical, fluorescence polarization, FITC-TR3 peptide (AID 748);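 further: fluorescence polarization from a fluorescein-labelled TR3 peptide binding purified Bcl-B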
# T3 sequence (Q9HD36 whole entry): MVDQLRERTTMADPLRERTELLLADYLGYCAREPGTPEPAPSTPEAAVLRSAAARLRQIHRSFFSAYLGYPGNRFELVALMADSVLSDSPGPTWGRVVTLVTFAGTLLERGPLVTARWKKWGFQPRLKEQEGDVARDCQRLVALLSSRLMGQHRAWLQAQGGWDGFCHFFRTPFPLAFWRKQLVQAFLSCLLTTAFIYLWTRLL
# Procathepsin L = Procathepsin L (Homo sapiens, UniProt P07711); test: cathepsin L inhibitors, dose response, counter-screen for M1/M17 aminopeptidase inhibitor project, biochemical, QFRET, 1536-well (AID 2214)
# Estrogen receptor = target: T4, Estrogen receptor (Homo sapiens, UniProt P03372); test: potentiators of ERα–SRC-1 coactivator binding, dose response, biochemical, TR-FRET, ERα LBD (AID 737)
# T4 sequence (P03372 whole entry): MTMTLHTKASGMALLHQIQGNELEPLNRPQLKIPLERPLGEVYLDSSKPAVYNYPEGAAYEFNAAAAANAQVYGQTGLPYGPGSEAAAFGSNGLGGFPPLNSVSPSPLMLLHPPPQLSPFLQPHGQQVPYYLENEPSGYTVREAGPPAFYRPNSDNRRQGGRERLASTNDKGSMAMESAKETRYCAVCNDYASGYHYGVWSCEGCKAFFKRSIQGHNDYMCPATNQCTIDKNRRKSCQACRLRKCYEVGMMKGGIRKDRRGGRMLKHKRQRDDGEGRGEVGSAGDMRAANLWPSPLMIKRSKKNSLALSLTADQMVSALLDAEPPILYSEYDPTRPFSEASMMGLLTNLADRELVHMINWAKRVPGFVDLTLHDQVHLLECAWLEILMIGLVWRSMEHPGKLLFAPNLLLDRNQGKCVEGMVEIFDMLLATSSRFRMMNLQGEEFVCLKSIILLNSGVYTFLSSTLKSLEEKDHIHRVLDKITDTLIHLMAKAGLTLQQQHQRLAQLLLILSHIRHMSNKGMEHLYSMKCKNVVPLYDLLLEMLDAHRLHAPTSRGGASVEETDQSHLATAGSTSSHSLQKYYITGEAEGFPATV
# Caspase-3 = target: T5, Caspase-3 (Homo sapiens, UniProt P42574); test: procaspase-3 activation potency of dual hits, dose response, counter-screen for dual procaspase-3/7 activator project, biochemical, absorbance, PC-3 D3A mutant (AID 504328)
# T5 sequence (P42574 whole entry): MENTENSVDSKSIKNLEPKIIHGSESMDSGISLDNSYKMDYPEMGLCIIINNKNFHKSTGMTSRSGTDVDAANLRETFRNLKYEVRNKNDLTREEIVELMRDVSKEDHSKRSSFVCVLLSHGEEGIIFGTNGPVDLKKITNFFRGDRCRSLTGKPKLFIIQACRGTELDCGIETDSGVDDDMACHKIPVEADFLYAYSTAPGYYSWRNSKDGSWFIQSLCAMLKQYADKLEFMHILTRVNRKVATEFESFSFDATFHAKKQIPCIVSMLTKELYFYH
# Caspase-7 = target: T6, Caspase-7 (Homo sapiens, UniProt P55210); test: procaspase-7 activators, dose response, dual procaspase-3/-7 activator project, biochemical, absorbance, human (AID 504330)
# T6 sequence (P55210 whole entry): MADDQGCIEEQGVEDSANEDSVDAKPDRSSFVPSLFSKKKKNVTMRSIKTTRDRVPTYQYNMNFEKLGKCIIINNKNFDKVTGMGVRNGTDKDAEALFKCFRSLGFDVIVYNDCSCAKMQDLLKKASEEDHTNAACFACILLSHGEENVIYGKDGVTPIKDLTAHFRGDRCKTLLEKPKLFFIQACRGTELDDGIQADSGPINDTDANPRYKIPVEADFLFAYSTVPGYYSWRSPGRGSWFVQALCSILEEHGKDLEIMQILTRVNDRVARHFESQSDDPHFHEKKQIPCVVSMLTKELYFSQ
# [1] = A Cell Based Secondary Assay To Explore Cytotoxicity of Compounds that Sensitize Mycobacterium Tuberculosis to Beta-Lactam Antibiotics.; assay type: functional
# Cytochrome P450 2D6 = Cytochrome P450 2D6 (Homo sapiens, UniProt P10635); test: qHTS Assay for Inhibitors and Substrates of Cytochrome P450 2D6. [Related pubchem assays: 410 ]; assay type: ADME; settings: read-out: Potency
# HeLa = test: Cytotoxicity counterscreen assay for transcriptional activators of heat shock protein 70 (Hsp70). [Related pubchem assays: 1203, 1252 ]; assay type: functional; settings: Homo sapiens;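 further: cells exposed to compound for 16 hours before readout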
# [2] = microbe, parasite or virus in culture; assay type: functional; settings: Mycobacterium tuberculosis
# [3] = Luminescence Cell-Based Dose Retest to Confirm Inhibitors of Cancer Stem Cells. [Related pubchem assays (depositor defined):AID2717, AID2721]; assay type: functional; settings: Homo sapiens
# [4] = target: Neurotensin receptor type 1 (Homo sapiens, UniProt P30989); assay type: functional;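 further: Image-based confirmatory dose-response assay measuring agonist activity at NTR1; NTR1-expressing U2OS osteosarcoma cells imaged for beta-arrestin GFP spot formation; agonist potency where compounds increase beta-arrestin recruitment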
# [5] = THP-1 cell cytotoxicity, dose response, cytotoxicity control for Vif-APOBEC3G degradation inhibitor project, THP-1 cells (AID 1117359); assay type: functional; settings: Human immunodeficiency virus 1, THP-1
# [6] = target: Epstein-Barr nuclear antigen 1 (Epstein-Barr virus (strain B95-8) (HHV-4) (Human herpesvirus 4), UniProt P03211); test: EBNA-1 inhibitors, dose response, biochemical, fluorescence polarization, 1536-well (AID 2381); parameters: species or system human gammaherpesvirus 4;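 further: fluorescence polarization of a Cy5 DNA probe bound by EBNA-1 protein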
# [7] = target: Lytic switch protein BZLF1 (Epstein-Barr virus (strain B95-8) (HHV-4) (Human herpesvirus 4), UniProt P03206); test: EBV ZTA inhibitors, dose response, counter-screen for EBNA-1 inhibitor project, biochemical, fluorescence polarization, Epstein-Barr virus, 1536-well (AID 2377); parameters: species or system human gammaherpesvirus 4;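 further: fluorescence polarization of Cy5-labelled ZRE DNA probe bound by purified Zta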
# [8] = inhibitors of firefly luciferase expression or activity, dose response, H4 neuroglioma cells, luminescence (AID 1990); assay type: functional, cell-based
# [9] = Luminescence Cell-Based Dose Response HTS to Identify Inhibitors of 5'UTR Stem-Loop Driven Prion Protein mRNA Translation in H4 Neuroglioblastoma Cells. [Related pubchem assays: 1827 (Project Summary), 1813 (Primary HTS)]; assay type: functional
# [10] = inhibitors of SNCA 5'UTR-driven reporter translation, confirmation, H4 neuroglioma cells, luminescence (AID 1988); assay type: functional, cell-based
# Cytochrome P450 3A4 = Cytochrome P450 3A4 (Homo sapiens, UniProt P08684); settings: Potency;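 further: confirmatory qHTS run detecting inhibitors and substrates of CYP3A4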
# Mu-type opioid receptor = Mu-type opioid receptor (Homo sapiens, UniProt P35372); test: SAR Analysis of Antagonists of the MOR Receptor using an Image-Based Assay - Set 3. [Related pubchem assays (depositor defined):AID1777, AID1785, AID1786, AID1966, AID2133, AID2136, AID2284, AID2285, AID2420]; assay type: functional
# [11] = target: Delta-type opioid receptor (Homo sapiens, UniProt P41143); test: SAR Analysis of Antagonists of the DOR Receptor using an Image-Based Assay - Set 3. [Related pubchem assays (depositor defined):AID1777, AID1785]; assay type: functional;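 further: U2OS cells expressing DOR1 and beta-arrestin GFP stimulated with 100 nM SNC80; imaging of GFP-tagged beta-arrestin moving into spots after receptor activation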
# [12] = target: T7, Kappa-type opioid receptor (Homo sapiens, UniProt P41145); test: SAR analysis of small molecule antagonists of the kappa opioid receptor via a luminescent beta-arrestin assay - Set 3. [Related pubchem assays (depositor defined):AID1777, AID1778, AID1785, AID1786, AID1966, AID2133, AID2136, AID2285, AID2495]; assay type: functional
# [13] = target: T7, Kappa-type opioid receptor; test: SAR analysis of Antagonists of the Kappa Opioid Receptor (KOR) using an Image-Based Assay - Set 3. [Related pubchem assays (depositor defined):AID1777, AID1785]; assay type: functional
# [14] = target: DNA dC->dU-editing enzyme APOBEC-3A (Homo sapiens, UniProt P31941); test: APOBEC3A DNA deaminase inhibitors, dose response, biochemical (AID 504722); assay type: functional
# [15] = target: DNA dC->dU-editing enzyme APOBEC-3G (Homo sapiens, UniProt Q9HC16); test: Dose Response confirmation of small molecule APOBEC3G DNA Deaminase Inhibitors via a fluorescence-based single-stranded DNA deaminase assay. [Related pubchem assays (depositor defined):AID493012, AID493028]; assay type: functional
# Large T antigen = Large T antigen (Simian virus 40, UniProt P03070); assay type: functional, Betapolyomavirus macacae;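 further: Confirmatory-stage PubChem screen for compounds that inhibit SV40 T antigen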
smiles,measurement,setting,value
COC(=O)c1cccc(NC(=O)CSc2nc(C)cc(O)n2)c1,IC50,Leucine aminopeptidase,7.51 µM (active)
same,IC50,Aspartyl aminopeptidase,> 73.5 µM (not active)
same,IC50,Bcl-2-like protein 10,56.8 µM (inactive)
same,IC50,Procathepsin L,> 59.6 µM (not active)
COc1nc(-c2ccc(Cl)cc2)ccc1-c1noc(-c2ccco2)n1,EC50,Estrogen receptor,10.9 µM (active)
C=CCNC1=C(Cl)C(=O)N(c2cccc(Cl)c2Cl)C1=O,EC50,Caspase-3,> 85.3 µM (inactive)
same,EC50,Caspase-7,> 85.3 µM (inactive)
Cc1ccc(/C=C2/SC(=S)N(CC(=O)Nc3ncc(Cc4ccc(C)cc4)s3)C2=O)cc1,CC50,[1],37.9 µM (active)
COC(=O)C/C=C1\c2ccccc2C(OC)C1C (configuration not stated),AC50,Cytochrome P450 2D6,0.0794 µM (inconclusive)
O=C(NCC1COc2ccccc2O1)C1CCCN(S(=O)(=O)c2c[nH]cn2)C1 (configuration not stated),CC50,HeLa,> 99 µM (not active)
CC(C)c1ccc(N2C(=O)NC(=O)/C(=C\C=C\c3ccco3)C2=O)cc1,CC50,[2],23.8 µM (active)
same,AC50,[3],1.23 µM (active)
same,EC50,[4],19 µM (active)
same,CC50,[5],37.8 µM (active)
COc1ccc2oc(C(=O)OCC(=O)Nc3cc(S(=O)(=O)N4CCOCC4)ccc3C)c(C)c2c1,IC50,[6],5.76 µM (active)
same,IC50,[7],> 111 µM (not active)
CCn1nnc(-c2ccccc2NC(=O)c2cccc(-n3cnnn3)c2)n1,EC50,[8],22.5 µM (active)
same,EC50,[9],14.9 µM (active)
same,EC50,[10],> 120 µM (not active)
same,IC50,[6],13.5 µM (not active)
same,IC50,[7],> 111 µM (not active)
O=C(O)CCn1ccnc1-c1ccccc1,EC50,Estrogen receptor,12.5 µM (not active)
COc1ccc(C(C)(C)C)cc1NC(=O)C1CC=CCC1C(=O)O (configuration not stated),IC50,Leucine aminopeptidase,3.05 µM (active)
same,IC50,Aspartyl aminopeptidase,> 73.5 µM (not active)
same,IC50,Procathepsin L,> 59.6 µM (not active)
CC1Cc2c(-c3ccccc3)nc3c(c2CO1)CN(CCOc1ccccc1)CC3 (configuration not stated),AC50,Cytochrome P450 2D6,5.01 µM (inconclusive)
same,AC50,Cytochrome P450 3A4,3.98 µM (inconclusive)
Cc1cccc(N2CCN(CCNC(=O)Cn3c(=O)c4cccn4c4cccnc43)CC2)c1C,IC50,Mu-type opioid receptor,6.33 µM (active)
same,IC50,[11],> 32 µM (inactive)
same,IC50,[12],> 20 µM (inactive)
same,IC50,[13],> 32 µM (inactive)
Cc1cc(-c2nnc(S)n2/N=C/c2cccc([N+](=O)[O-])c2)[nH]n1,IC50,[14],> 100 µM (inactive)
same,IC50,[15],3.68 µM (active)
Cc1ccc(/C=N/n2c(S)nnc2-c2ccco2)cc1,IC50,Large T antigen,33.6 µM (active)
same,IC50,[14],> 100 µM (inactive)
same,IC50,[15],3.02 µM (active)
COc1ccc(/C=C/C(=O)NCC(=O)N/N=C/c2cc(Br)ccc2OCc2ccccc2)cc1,CC50,[1],> 40 µM (active)
